According to US11072638B2, “Immunostimulating peptides” (AIMVION A/S, priority 2016, dated 2021):
Bridge positions count the residues as written; N and C are the ends. Ends that are not written are not given here. I, II: the chains in the order shown.

Assays:
THP-1 cells = test: IL-6 levels in LPS-stimulated THP-1 cells, 6 h (Example 1); format: cell-based, human; details: for % IL-6 secretion level compared to LPS-stimulated control: THP-1, 1 μg/μl LPS for 6 h, + above, − below LPS-only control (100%); for Release of cytokines, including pro-inflammatory cytokines such as IL-6, TNF-alpha, and IL-8: pre-treatment of cells with peptide
Description: The modulatory function of peptides SG #4, SG #8, SG #13, and SG #14 on the expression levels of IL-6 in the human acute monocytic leukaemia cell line THP-1 was examined. THP-1 cells were maintained in RPMI 1640 supplemented with 10% FBS, 100 U/ml penicillin, 100 μg/ml streptomycin and 2 mM L-glutamine at 37° C. in a 5% CO2 incubator. THP-1 cells are known to induce IL-6, TNFα, IL-10 and IL-8 mRNA and protein in response to lipopolysaccharide (LPS) treatment. THP-1 cells were left untreated or incubated with 0 uM, 7.5 μM, 15 μM, 30 μM, 60 μM or 100 μm of each of the peptides, and stimulated with […] LPS for 6 h, based on previous analyses to find the optimal dose and incubation times.
(−) inhibition indicates percentage (%) of inhibition as compared to only LPS treated samples (arbitrarily set at 100%).

female BALB/c mice = test: Anti-ovalbumin IgG1 ELISA after in vivo immunization of mice (Example 3); details: s.c. day 1 and day 14, 5 μg SG#4 + 50/25 μg ovalbumin per animal, serum at day 21
Text: Chicken ovalbumin has been used to trigger T cell activation in immunology studies. Ovalbumin immunized mice produce anti-OVA antibodies predominantly of the IgG1 and IgE isotypes that mediate tissue-specific effector functions in multiple mouse models. Thus, it is often desirable to measure anti-OVA antibody levels in the plasma or serum to determine the effectiveness of the immunization/induction of a TH2-mediated immune response. Here, we tested the effectiveness of the SG #4 peptide in inducing of a TH2-mediated immune response in female BALB/c mice. The study agents contained Ovalbumin alone, peptide construct SG #4 alone or ovalbumin in combination with SG #4. […]
An ELISA assay was carried out according to the manufacturer's protocol, as follows. […] This Goat Anti-mouse IgG1 was labeled with HRP, allowing quantification of the […]. Addition of the HRP Substrate 3,3′,5,5′-tetramethylbenzidine (TMB), following by Stop Solution produces a yellow colored product which was measured spectrophotometrically. […] 1 mL of the top standard concentration (250 pg/mL anti-ovalbumin IgG1 quantification) was prepared in 1× Assay Diluent A (1×AD) from the anti-ovalbumin IgG1 stock solution. […] Using computer reduction software, absorbance (linear y-axis) for standard versus concentration (linear x-axis) is plotted and data is fitted with a quadratic equation. […]

Sequence | % IL-6 secretion level compared to LPS-stimulated control (THP-1 cells; 7.5 μM peptide) | % IL-6 secretion level compared to LPS-stimulated control (THP-1 cells; 15 μM peptide) | % IL-6 secretion level compared to LPS-stimulated control (THP-1 cells; 30 μM peptide) | % IL-6 secretion level compared to LPS-stimulated control (THP-1 cells; 60 μM peptide) | % IL-6 secretion level compared to LPS-stimulated control (THP-1 cells; 100 μM peptide) | Release of cytokines, including pro-inflammatory cytokines such as IL-6, TNF-alpha, and IL-8 (THP-1 cells) | Induction of immune response (anti-ovalbumin IgG1) versus ovalbumin alone (female BALB/c mice)
LQNKRGLGLSILLNEECGPGPGP (disulfide I:17-II:17 (inferred)) [SG#8] | +1.472% | +14.54% | +6.835% | +7.655% | +20.86% | promotes the release of cytokines | –
LQNRRGLGLSILLNEELQNRRGL (Mutated sequence) [SG#14] | −2.981% | −0.4476% | +0.7403% | +28.52% | +15.21% | promotes the release of cytokines | –
LQNRRGLGLSILLNC (disulfide I:15-II:15 (inferred)) [SG#4] | +12.99% | +20.76% | +38.19% | +36.39% | +13.27% | promotes the release of cytokines | significantly higher induction of immune response
LQNRRGLGLSILLNEE (Mutated sequence) [SG#13] | −5.765% | +6.907% | −5.286% | +8.616% | +36.98% | promotes the release of cytokines | –
